Reference: PubChem BioAssay AID1259407 (Chemical Carcinogenesis Research Information System (CCRIS), 2018)
Calls of active or inactive are those of the source. How the calls were made is not given here.

Tested on: CCRIS mutagenicity, Ames/micronucleus/aberration tests
Test: CCRIS mutagenicity studies
[1] = Test System: AMES SALMONELLA TYPHIMURIUM, Strain/Indicator: TA97, Metabolic Activation: NONE, Method: PREINCUBATION
[2] = Test System: AMES SALMONELLA TYPHIMURIUM, Strain/Indicator: TA98, Metabolic Activation: NONE, Method: PREINCUBATION
[3] = Test System: AMES SALMONELLA TYPHIMURIUM, Strain/Indicator: TA100, Metabolic Activation: NONE, Method: PREINCUBATION
[4] = Test System: AMES SALMONELLA TYPHIMURIUM, Strain/Indicator: TA1535, Metabolic Activation: NONE, Method: PREINCUBATION
[5] = Test System: AMES SALMONELLA TYPHIMURIUM, Strain/Indicator: TA1537, Metabolic Activation: NONE, Method: PREINCUBATION
[6] = Test System: AMES SALMONELLA TYPHIMURIUM, Strain/Indicator: TA98, Metabolic Activation: NONE, Method: STANDARD PLATE
[7] = Test System: AMES SALMONELLA TYPHIMURIUM, Strain/Indicator: TA100, Metabolic Activation: NONE, Method: STANDARD PLATE

CCCCCCCCCCCCCCCCCCCC
mutagenic call (Test System: AMES SALMONELLA TYPHIMURIUM, Strain/Indicator: TA97, Metabolic Activation: HAMSTER, LIVER, S-9, AROCLOR 1254 (10 OR 30%), Method: PREINCUBATION): inactive; negative | mutagenic call [1]: inactive; negative | mutagenic call (Test System: AMES SALMONELLA TYPHIMURIUM, Strain/Indicator: TA97, Metabolic Activation: RAT, LIVER, S-9, AROCLOR 1254 (10 OR 30%), Method: PREINCUBATION): inactive; negative | mutagenic call (Test System: AMES SALMONELLA TYPHIMURIUM, Strain/Indicator: TA98, Metabolic Activation: HAMSTER, LIVER, S-9, AROCLOR 1254 (10 OR 30%), Method: PREINCUBATION): inactive; negative | mutagenic call [2]: inactive; negative | mutagenic call (Test System: AMES SALMONELLA TYPHIMURIUM, Strain/Indicator: TA98, Metabolic Activation: RAT, LIVER, S-9, AROCLOR 1254 (10 OR 30%), Method: PREINCUBATION): inactive; negative | mutagenic call (Test System: AMES SALMONELLA TYPHIMURIUM, Strain/Indicator: TA100, Metabolic Activation: HAMSTER, LIVER, S-9, AROCLOR 1254 (10 OR 30%), Method: PREINCUBATION): inactive; negative | mutagenic call [3]: inactive; negative | mutagenic call (Test System: AMES SALMONELLA TYPHIMURIUM, Strain/Indicator: TA100, Metabolic Activation: RAT, LIVER, S-9, AROCLOR 1254 (10 OR 30%), Method: PREINCUBATION): inactive; negative | mutagenic call (Test System: AMES SALMONELLA TYPHIMURIUM, Strain/Indicator: TA1535, Metabolic Activation: HAMSTER, LIVER, S-9, AROCLOR 1254 (10 OR 30%), Method: PREINCUBATION): inactive; negative | mutagenic call [4]: inactive; negative | mutagenic call (Test System: AMES SALMONELLA TYPHIMURIUM, Strain/Indicator: TA1535, Metabolic Activation: RAT, LIVER, S-9, AROCLOR 1254 (10 OR 30%), Method: PREINCUBATION): inactive; negative | mutagenic call (Test System: AMES SALMONELLA TYPHIMURIUM, Strain/Indicator: TA1537, Metabolic Activation: HAMSTER, LIVER, S-9, AROCLOR 1254 (30%), Method: PREINCUBATION): inactive; negative | mutagenic call [5]: inactive; negative | mutagenic call (Test System: AMES SALMONELLA TYPHIMURIUM, Strain/Indicator: TA1537, Metabolic Activation: RAT, LIVER, S-9, AROCLOR 1254 (30%), Method: PREINCUBATION): inactive; negative

O=C1Cc2cc3ccc([N+](=O)[O-])cc3cc2[C@H](O)[C@H]1O
mutagenic call [6]: inactive; negative

Cc1ccc(N=Nc2c(O)ccc3ccccc23)cc1
mutagenic call [6]: inactive; negative | mutagenic call (Test System: AMES SALMONELLA TYPHIMURIUM, Strain/Indicator: TA98, Metabolic Activation: RAT, LIVER, S-9, Method: STANDARD PLATE): inactive; negative | mutagenic call [7]: inactive; negative | mutagenic call (Test System: AMES SALMONELLA TYPHIMURIUM, Strain/Indicator: TA100, Metabolic Activation: RAT, LIVER, S-9,, Method: STANDARD PLATE): inactive; negative

CCCCOc1ccc(N=O)cc1
mutagenic call [7]: active; positive

NCCNC(=O)c1ccc(Cl)cn1
mutagenic call [1]: inactive; negative | mutagenic call (Test System: AMES SALMONELLA TYPHIMURIUM, Strain/Indicator: TA97, Metabolic Activation: NONE, Method: STANDARD PLATE): inactive; negative | mutagenic call (Test System: AMES SALMONELLA TYPHIMURIUM, Strain/Indicator: TA97, Metabolic Activation: RAT, LIVER, S-9, PHENOBARBITAL AND BETA-NAPHTHOFLAVONE, Method: PREINCUBATION): inactive; negative | mutagenic call (Test System: AMES SALMONELLA TYPHIMURIUM, Strain/Indicator: TA97, Metabolic Activation: RAT, LIVER, S-9, PHENOBARBITAL AND BETA-NAPHTHOFLAVONE, Method: STANDARD PLATE): inactive; negative | mutagenic call [2]: inactive; negative | mutagenic call [6]: inactive; negative | mutagenic call (Test System: AMES SALMONELLA TYPHIMURIUM, Strain/Indicator: TA98, Metabolic Activation: RAT, LIVER, S-9, PHENOBARBITAL AND BETA-NAPHTHOFLAVONE, Method: PREINCUBATION): inactive; negative | mutagenic call (Test System: AMES SALMONELLA TYPHIMURIUM, Strain/Indicator: TA98, Metabolic Activation: RAT, LIVER, S-9, PHENOBARBITAL AND BETA-NAPHTHOFLAVONE, Method: STANDARD PLATE): inactive; negative | mutagenic call [3]: inactive; negative | mutagenic call [7]: inactive; negative | mutagenic call (Test System: AMES SALMONELLA TYPHIMURIUM, Strain/Indicator: TA100, Metabolic Activation: RAT, LIVER, S-9, PHENOBARBITAL AND BETA-NAPHTHOFLAVONE, Method: PREINCUBATION): inactive; negative | mutagenic call (Test System: AMES SALMONELLA TYPHIMURIUM, Strain/Indicator: TA100, Metabolic Activation: RAT, LIVER, S-9, PHENOBARBITAL AND BETA-NAPHTHOFLAVONE, Method: STANDARD PLATE): inactive; negative | mutagenic call (Test System: AMES SALMONELLA TYPHIMURIUM, Strain/Indicator: TA102, Metabolic Activation: NONE, Method: PREINCUBATION): inactive; negative | mutagenic call (Test System: AMES SALMONELLA TYPHIMURIUM, Strain/Indicator: TA102, Metabolic Activation: NONE, Method: STANDARD PLATE): inactive; negative | mutagenic call (Test System: AMES SALMONELLA TYPHIMURIUM, Strain/Indicator: TA102, Metabolic Activation: RAT, LIVER, S-9, PHENOBARBITAL AND BETA-NAPHTHOFLAVONE, Method: PREINCUBATION): inactive; negative | mutagenic call (Test System: AMES SALMONELLA TYPHIMURIUM, Strain/Indicator: TA102, Metabolic Activation: RAT, LIVER, S-9, PHENOBARBITAL AND BETA-NAPHTHOFLAVONE, Method: STANDARD PLATE): inactive; negative | mutagenic call [4]: inactive; negative | mutagenic call (Test System: AMES SALMONELLA TYPHIMURIUM, Strain/Indicator: TA1535, Metabolic Activation: NONE, Method: STANDARD PLATE): inactive; negative | mutagenic call (Test System: AMES SALMONELLA TYPHIMURIUM, Strain/Indicator: TA1535, Metabolic Activation: RAT, LIVER, S-9, PHENOBARBITAL AND BETA-NAPHTHOFLAVONE, Method: PREINCUBATION): inactive; negative | mutagenic call (Test System: AMES SALMONELLA TYPHIMURIUM, Strain/Indicator: TA1535, Metabolic Activation: RAT, LIVER, S-9, PHENOBARBITAL AND BETA-NAPHTHOFLAVONE, Method: STANDARD PLATE): inactive; negative | mutagenic call [5]: inactive; negative | mutagenic call (Test System: AMES SALMONELLA TYPHIMURIUM, Strain/Indicator: TA1537, Metabolic Activation: NONE, Method: STANDARD PLATE): inactive; negative | mutagenic call (Test System: AMES SALMONELLA TYPHIMURIUM, Strain/Indicator: TA1537, Metabolic Activation: RAT, LIVER, S-9, PHENOBARBITAL AND BETA-NAPHTHOFLAVONE, Method: PREINCUBATION): inactive; negative | mutagenic call (Test System: AMES SALMONELLA TYPHIMURIUM, Strain/Indicator: TA1537, Metabolic Activation: RAT, LIVER, S-9, PHENOBARBITAL AND BETA-NAPHTHOFLAVONE, Method: STANDARD PLATE): inactive; negative | mutagenic call (Test System: AMES SALMONELLA TYPHIMURIUM, Strain/Indicator: TA1538, Metabolic Activation: NONE, Method: PREINCUBATION): inactive; negative | mutagenic call (Test System: AMES SALMONELLA TYPHIMURIUM, Strain/Indicator: TA1538, Metabolic Activation: NONE, Method: STANDARD PLATE): inactive; negative | mutagenic call (Test System: AMES SALMONELLA TYPHIMURIUM, Strain/Indicator: TA1538, Metabolic Activation: RAT, LIVER, S-9, PHENOBARBITAL AND BETA-NAPHTHOFLAVONE, Method: PREINCUBATION): inactive; negative | mutagenic call (Test System: AMES SALMONELLA TYPHIMURIUM, Strain/Indicator: TA1538, Metabolic Activation: RAT, LIVER, S-9, PHENOBARBITAL AND BETA-NAPHTHOFLAVONE, Method: STANDARD PLATE): inactive; negative | mutagenic call (Test System: CHINESE HAMSTER V-79, Strain/Indicator: V-79 (HPRT)/6-THIOGUANINE, Metabolic Activation: NONE): inactive; negative | mutagenic call (Test System: CHINESE HAMSTER V-79, Strain/Indicator: V-79 (HPRT)/6-THIOGUANINE, Metabolic Activation: RAT, LIVER, S-9, AROCLOR 1254): inactive; negative | mutagenic call (Test System: UDS RAT HEPATOCYTES, Strain/Indicator: THY INCORP, Metabolic Activation: NONE, Method: AUTORADIOGRAPHY): inactive; negative

Fc1cnc2ccc3ccccc3c2c1
mutagenic call (Test System: AMES SALMONELLA TYPHIMURIUM, Strain/Indicator: TA100, Metabolic Activation: RAT, LIVER, S-9, PHENOBARBITAL AND 5,6-BENZOFLAVONE, Method: PREINCUBATION): active; positive
